The target in this assay is T1, renin (Homo sapiens, UniProt P00797).
T1 sequence (P00797 67-406): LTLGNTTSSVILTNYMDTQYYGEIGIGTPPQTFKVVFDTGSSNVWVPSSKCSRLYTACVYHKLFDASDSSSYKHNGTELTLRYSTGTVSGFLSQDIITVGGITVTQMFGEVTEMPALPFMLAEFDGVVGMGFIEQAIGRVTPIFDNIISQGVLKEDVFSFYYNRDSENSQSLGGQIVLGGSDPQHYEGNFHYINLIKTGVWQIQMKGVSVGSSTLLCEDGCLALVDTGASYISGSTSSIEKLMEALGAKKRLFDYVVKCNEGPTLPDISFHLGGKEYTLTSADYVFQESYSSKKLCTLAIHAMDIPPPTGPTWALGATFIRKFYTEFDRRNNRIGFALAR
Briefly: renin inhibitory potency. The class given is biochemical. The following applies: 2S,5S product compared with the 2R,5R isomer separated by HPLC. From the text: The activity of the compounds of the present invention as inhibitors of the angiotensinogen-cleaving activity of renin may be determined by studying (1) their ability to inhibit the angiotensinogen-cleaving activity of renin in vitro and (2) their ability to antagonize the exogenous renin-induced pressor response in vivo.

As to `CCCC[C@H](NC(=O)[C@H](Cc1ccccc1)NC(=O)N1CCOCC1)C(=O)N[C@@H](CC1CCCCC1)C(=O)C(F)(F)[C@@H](CC(C)C)C(=O)OCC` [Example 10, Ethyl (2S,5S)-2-isobutyl-3,3-difluoro-4-keto-5-N-(N-[morpholinocarbonyl-L-phenylalanyl]-L-norleucyl)-amino-6-cyclohexylhexanoate], the renin inhibitory potency result was “more active”.

(Values after patent US4855303A, “Fluorine containing renin inhibitors” (Pfizer Inc., priority 1988, dated 1989).)
